Measured values published in US8158811B2, “Unsaturated fatty hydroxy acid derivatives and the dermocosmetologic use thereof” (Pierre Fabre Dermo-Cosmetique, priority 2005, dated 2012).

Experiments:
[1] = system: intracellular AOSs, fibroblast line L929; test: in vitro assay of intracellular AOSs (H2DCF-DA probe) after H2O2/iron oxidative stress; type: cell-based, murin; details: pre-incubation 3 h, L929
[2] = system: transglutaminase 1 (TG1); test: keratinocyte differentiation, real-time RT-PCR of transglutaminase 1 transcripts; type: cell-based, human; details: NHK, 48 hours
Protocol: (§1) Normal human keratinocytes (NHK) proliferate and differentiate in vitro, forming stratified layers which mimic the basal organisation of the skin. Extracellular calcium concentrations in excess of 0.1 mM initiate a cascade of genome and non-genome events which take the keratinocytes from a proliferative phase towards a differentiation phase. Keratinocyte differentiation can then be evaluated by studying the expression of several markers such as keratins 1 and 10, transglutaminase 1, desaturase DES2, involucrine, FATP4 and ABCG1 transporters. We therefore evaluated the effect of certain hydroxyalcene carboxylic acids in an in vitro culture model.
(§2) Normal human keratinocytes are isolated from skin explants. They are cultured in KSFM medium (Gibco) with a low calcium content (0.1 mM) containing 25 μg/ml of BPE (bovine pituitary extract) and […] of EGF (epithelium growth factor). 24 hours after culturing, differentiation is triggered by the addition of calcium (final concentration 1.2 mM). The active ingredients are added or not at the same time as calcium at concentrations of 100 and 1 μg/ml in order to determine whether or not they have a potentialising effect on differentiation. Cells were then analysed 48 hours after the addition of calcium and these products.
(§3) Total RNA was extracted under cold conditions from keratinocytes.
(§4) After reverse transcription of mRNA into cDNA, PCRs were made up in 96 well plates (iCycler quantitative PCR apparatus, BioRad). Expression of transcripts of transglutaminase, desaturase (DES2), ABCG1 and FATP4 were standardized with respect to the expression of reference genes (GAPDH, UBC, HPRT).

[3] = system: desaturase DES2; test: keratinocyte differentiation, real-time RT-PCR of DES2 transcripts; type: cell-based, human; details: NHK, 48 hours
Protocol: as §1, §2, §3, §4

[4] = system: ABCG1; test: keratinocyte differentiation, real-time RT-PCR of ABCG1 transcripts; type: cell-based, human; details: NHK, 48 hours
Protocol: as §1, §2, §3, §4

[5] = system: prostaglandin 6KF1α; test: production of prostaglandin 6KF1α by keratinocytes stimulated with calcium ionophore A23187 (ELISA); type: cell-based; details: 3 μg/ml, A23187 1 μm 5 hours
Protocol: A suspension of keratinocytes in DMEM 10% foetal calf serum was divided into 6 well plates (1.2. 106cells/wells) and incubated for 16 hours at 37° C. in a 5% CO2 atmosphere. The keratinocytes were then rinsed with PBS in order to eliminate non adhering cells then exposed to the products to be tested included in DMEM without foetal calf serum (which could interfere with the assay).
The concentration tested in culture was 3 μg/ml. This was retained as the test concentration after a preliminary evaluation test for cytotoxicity (neutral red) and is not cytotoxic.
For each treatment, three wells were tested. Cells were pre-incubated for 60 minutes with the products to be tested then a stimulating agent was added to stimulate the arachidonic acid cascade (calcium ionophore) which was added for 5 hours: calcium ionophore A23187 was used at a concentration of 1 μm.
After 5 hours in culture, the culture medium for each well was recovered, centrifuged at 3000 rpm and stored at −80° C.
The production of prostaglandin 6KF1α for each of the tests was measured using a EUROMEDEX Elisa Kit.
Results are expressed as the percentage activity/stimulated control.

SMILES | Induction Factor vs Control (CaCl2 1.2 mM) TG1 ([2]; 1 μg/ml) | Induction Factor vs Control (CaCl2 1.2 mM) TG1 ([2]; 100 μg/ml) | Induction Factor vs Control (CaCl2 1.2 mM) DES2 ([3]; 1 μg/ml) | Induction Factor vs Control (CaCl2 1.2 mM) DES2 ([3]; 100 μg/ml) | Percentage inhibition of the intracellular production of AOS ([1]; 0.02 ng/ml) | Percentage inhibition of the intracellular production of AOS ([1]; 0.2 ng/ml) | Percentage inhibition of the intracellular production of AOS ([1]; 2 ng/ml) | Percentage inhibition of the intracellular production of AOS ([1]; 20 ng/ml) | Induction Factor vs Control (CaCl2 1.2 mM) ABCG1 ([4]; 1 μg/ml) | Induction Factor vs Control (CaCl2 1.2 mM) ABCG1 ([4]; 100 μg/ml) | % inhibiting activity of evaluated molecules on the production of PG6KF1α Inflammation [5]
O=C(O)C(F)=CCCCCCO (mixture of isomers) [n=4, R=H, Rn=H, R1=F] | 1.6 | 1.7 | 2.2 | 3.2 | 10% | 6% | −4% | −36% | 2.6 | 2.6 | 30%
O=C(O)C=CCCCCO [n=3, R=H, Rn=H, R1=H] | 1.2 | 2.6 | 1.6 | 2.4 | 21% | 15% | 11% | 14% | 1.5 | 4.0 | 29%
O=C(O)C=CCCCCCO [n=4, R=H, Rn=H, R1=H] | 1.2 | 1.7 | 1.0 | 2.2 | 17% | 9% | 9% | 0% | 1.2 | 2.5 | –
O=C(O)/C=C/CCCCCCCCCCO [n=9, R=H, Rn=H, R1=H, 13-hydroxy-tridec-2t-enoic acid] | 1.4 | 14.8 | 1.8 | 51.7 | 9% | 10% | 6% | −22% | 1.5 | 13.8 | 31%
O=C(O)/C=C/CCCCCCCCCCCO [n=10, R=H, Rn=H, R1=H, 14-hydroxy-tetradec-2t-enoic acid] | 1.5 | 31.4 | 2.0 | 125.8 | 11% | 4% | −20% | −34% | 1.4 | 25.5 | Non active

Continued, in another order:

Induction Factor vs Control (CaCl2 1.2 mM) TG1 ([2]; 1 μg/ml) | Induction Factor vs Control (CaCl2 1.2 mM) TG1 ([2]; 100 μg/ml) | Induction Factor vs Control (CaCl2 1.2 mM) DES2 ([3]; 1 μg/ml) | Induction Factor vs Control (CaCl2 1.2 mM) DES2 ([3]; 100 μg/ml) | SMILES | Percentage inhibition of the intracellular production of AOS ([1]; 0.02 ng/ml) | Percentage inhibition of the intracellular production of AOS ([1]; 0.2 ng/ml) | Percentage inhibition of the intracellular production of AOS ([1]; 2 ng/ml) | Percentage inhibition of the intracellular production of AOS ([1]; 20 ng/ml) | Induction Factor vs Control (CaCl2 1.2 mM) ABCG1 ([4]; 1 μg/ml) | Induction Factor vs Control (CaCl2 1.2 mM) ABCG1 ([4]; 100 μg/ml) | % inhibiting activity of evaluated molecules on the production of PG6KF1α Inflammation [5]
1.4 | 3.5 | 1.6 | 16.0 | O=C(O)C(F)=CCCCCCCCCCCCO [n=10, R=H, Rn=H, R1=F, 14-hydroxy-tetradec-2-fluoro-2-enoic acid] | 29% | 16% | 0% | −19% | 1.4 | 4.6 | 18%
4.2 | – | 9.0 | – | O=C(O)C(F)=CCCCCCCCCCCCCCCO [n=13, R=H, Rn=H, R1=F, 17-hydroxy-heptadec-2-fluoro-2-enoic acid] | 36% | 28% | 14% | −9% | 4.8 | – | 14%
1.4 | – | 3.0 | – | O=C(O)/C=C/CCCCCCCCCCCCCCO [n=13, R=H, Rn=H, R1=H, 17-hydroxy-heptadec-2t-enoic acid] | 3% | 13% | −1% | −10% | 3.0 | – | 25%
